Laboratory results taken from US6448204B1, “Herbicidal 2-aryloxy-4-methyl-6-pyrazol-1-yl-pyridines” (BASF Aktiengesellschaft, priority 1999, dated 2002).

Experiments:
Assay in all cases: Pre-emergence test
Type in all cases: in vivo
Conditions in all cases: 3 weeks after treatment
[1] = test system: Abutilon theophrasti (ABUTH)
Experimental: (§1) To evaluate their herbicidal activity, compounds according to the invention are tested using a representative range of plants: […] The pre-emergence tests involve spraying a liquid formulation of the compound onto the soil in which the seeds of the plant species mentioned above has recently been sown. The soil used in the tests is a prepared horticultural loam. […] In these tests untreated sown soil are used as controls.

[2] = test system: Alopecurus myosuroides (ALOMY)
Experimental: as §1

[3] = test system: Ambrosia artemisifolia (AMBEL)
Experimental: as §1

[4] = test system: Cassia obtusifolia (CASOB)
Experimental: as §1

[5] = test system: Digitaria sanguinalis (DIGSA)
Experimental: as §1

[6] = test system: Echinochloa crus-galli (ECHCG)
Experimental: as §1

Galium aparine (GALAP) = test system: Galium aparine (GALAP)
Experimental: as §1

[7] = test system: Ipomoea hederacea (IPOHE)
Experimental: as §1

Lamium purpureum (LAMPU) = test system: Lamium purpureum (LAMPU)
Experimental: as §1

[8] = test system: Lolium multiflorum (LOLMU)
Experimental: as §1

[9] = test system: Matricaria inodora (MATIN)
Experimental: as §1

Setaria viridis (SETVI) = test system: Setaria viridis (SETVI)
Experimental: as §1

Stellaria media (STEME) = test system: Stellaria media (STEME)
Experimental: as §1

## Cn1nc(C(F)(F)F)cc1Oc1cccc(-n2ccc(C(F)(F)F)n2)n1 [Comparison]
[1]; 0.013 kg/ha
  Assessment rating ABUTH (pre-emergence application): 0 (0 - No effect)
[1]; 0.025 kg/ha
  Assessment rating ABUTH (pre-emergence application): 0 (0 - No effect)
[1]; 0.100 kg/ha
  Assessment rating ABUTH (pre-emergence application): 5 (5 - Definite injury)
[1]; 0.400 kg/ha
  Assessment rating ABUTH (pre-emergence application): 9 (9 - Complete kill)
[2]; 0.013 kg/ha
  Assessment rating ALOMY (pre-emergence application): 0 (0 - No effect)
[2]; 0.025 kg/ha
  Assessment rating ALOMY (pre-emergence application): 1 (1 - Trace effect)
[2]; 0.100 kg/ha
  Assessment rating ALOMY (pre-emergence application): 4 (4 - Injury)
[2]; 0.400 kg/ha
  Assessment rating ALOMY (pre-emergence application): 8 (8 - Approaching complete kill)
[3]; 0.013 kg/ha
  Assessment rating AMBEL (pre-emergence application): 0 (0 - No effect)
[3]; 0.025 kg/ha
  Assessment rating AMBEL (pre-emergence application): 4 (4 - Injury)
[3]; 0.100 kg/ha
  Assessment rating AMBEL (pre-emergence application): 6 (6 - Herbicidal effect)
[3]; 0.400 kg/ha
  Assessment rating AMBEL (pre-emergence application): 8 (8 - Approaching complete kill)
[4]; 0.013 kg/ha
  Assessment rating CASOB (pre-emergence application): 0 (0 - No effect)
[4]; 0.025 kg/ha
  Assessment rating CASOB (pre-emergence application): 0 (0 - No effect)
[4]; 0.100 kg/ha
  Assessment rating CASOB (pre-emergence application): 2 (2 - Slight effect)
[4]; 0.400 kg/ha
  Assessment rating CASOB (pre-emergence application): 5 (5 - Definite injury)
[5]; 0.013 kg/ha
  Assessment rating DIGSA (pre-emergence application): 9 (9 - Complete kill)
[5]; 0.025 kg/ha
  Assessment rating DIGSA (pre-emergence application): 9 (9 - Complete kill)
[5]; 0.100 kg/ha
  Assessment rating DIGSA (pre-emergence application): 9 (9 - Complete kill)
[5]; 0.400 kg/ha
  Assessment rating DIGSA (pre-emergence application): 9 (9 - Complete kill)
[6]; 0.013 kg/ha
  Assessment rating ECHCG (pre-emergence application): 0 (0 - No effect)
[6]; 0.025 kg/ha
  Assessment rating ECHCG (pre-emergence application): 2 (2 - Slight effect)
[6]; 0.100 kg/ha
  Assessment rating ECHCG (pre-emergence application): 4 (4 - Injury)
[6]; 0.400 kg/ha
  Assessment rating ECHCG (pre-emergence application): 7 (7 - Good herbicidal effect)
Galium aparine (GALAP); 0.013 kg/ha
  Assessment rating GALAP (pre-emergence application): 0 (0 - No effect)
Galium aparine (GALAP); 0.025 kg/ha
  Assessment rating GALAP (pre-emergence application): 1 (1 - Trace effect)
Galium aparine (GALAP); 0.100 kg/ha
  Assessment rating GALAP (pre-emergence application): 2 (2 - Slight effect)
Galium aparine (GALAP); 0.400 kg/ha
  Assessment rating GALAP (pre-emergence application): 8 (8 - Approaching complete kill)
[7]; 0.013 kg/ha
  Assessment rating IPOHE (pre-emergence application): 0 (0 - No effect)
[7]; 0.025 kg/ha
  Assessment rating IPOHE (pre-emergence application): 1 (1 - Trace effect)
[7]; 0.100 kg/ha
  Assessment rating IPOHE (pre-emergence application): 3 (3 - Moderate effect)
[7]; 0.400 kg/ha
  Assessment rating IPOHE (pre-emergence application): 7 (7 - Good herbicidal effect)
Lamium purpureum (LAMPU); 0.013 kg/ha
  Assessment rating LAMPU (pre-emergence application): 1 (1 - Trace effect)
Lamium purpureum (LAMPU); 0.025 kg/ha
  Assessment rating LAMPU (pre-emergence application): 6 (6 - Herbicidal effect)
Lamium purpureum (LAMPU); 0.100 kg/ha
  Assessment rating LAMPU (pre-emergence application): 8 (8 - Approaching complete kill)
Lamium purpureum (LAMPU); 0.400 kg/ha
  Assessment rating LAMPU (pre-emergence application): 8 (8 - Approaching complete kill)
[8]; 0.013 kg/ha
  Assessment rating LOLMU (pre-emergence application): 3 (3 - Moderate effect)
[8]; 0.025 kg/ha
  Assessment rating LOLMU (pre-emergence application): 5 (5 - Definite injury)
[8]; 0.100 kg/ha
  Assessment rating LOLMU (pre-emergence application): 8 (8 - Approaching complete kill)
[8]; 0.400 kg/ha
  Assessment rating LOLMU (pre-emergence application): 8 (8 - Approaching complete kill)
[9]; 0.013 kg/ha
  Assessment rating MATIN (pre-emergence application): 2 (2 - Slight effect)
[9]; 0.025 kg/ha
  Assessment rating MATIN (pre-emergence application): 7 (7 - Good herbicidal effect)
[9]; 0.100 kg/ha
  Assessment rating MATIN (pre-emergence application): 9 (9 - Complete kill)
[9]; 0.400 kg/ha
  Assessment rating MATIN (pre-emergence application): 9 (9 - Complete kill)
Setaria viridis (SETVI); 0.013 kg/ha
  Assessment rating SETVI (pre-emergence application): 2 (2 - Slight effect)
Setaria viridis (SETVI); 0.025 kg/ha
  Assessment rating SETVI (pre-emergence application): 2 (2 - Slight effect)
Setaria viridis (SETVI); 0.100 kg/ha
  Assessment rating SETVI (pre-emergence application): 8 (8 - Approaching complete kill)
Setaria viridis (SETVI); 0.400 kg/ha
  Assessment rating SETVI (pre-emergence application): 9 (9 - Complete kill)
Stellaria media (STEME); 0.013 kg/ha
  Assessment rating STEME (pre-emergence application): 0 (0 - No effect)
Stellaria media (STEME); 0.025 kg/ha
  Assessment rating STEME (pre-emergence application): 8 (8 - Approaching complete kill)
Stellaria media (STEME); 0.100 kg/ha
  Assessment rating STEME (pre-emergence application): 8 (8 - Approaching complete kill)
